Results as given in patent US9890194B2, “Epitope and its use” (W[…] BADAŃEIT+ SP. Z O.O., priority 2012, dated 2018).

What was measured:
[1] = system: antibodies present in umbilical blood sera 1H-9H (IgG); assay: ELISA of peptides synthesized on HPM-pins with a mixture of 9 umbilical blood sera (1H-9H); assay type: binding, human; conditions: mixture of umbilical sera 1H-9H; 29 overlapping twelve amino-acid peptides of Table 1 on HPM-pins
Excerpt: Peptides representing the bioinformatically predicted regions were synthesized using an NCP kit with 96 hydroxypropylmethacrylate (HPM) pins (MIMOTOPES, Clayton, Victoria, Australia) according to the manufacturer's specifications (Carter, J.M. (1994) An epitope mapping of a protein using the Geysen (PEPSCAN) procedure. Methods Mol Biol 36: 207-223). As the sixth, control, peptide we synthesised a fragment corresponding to the N-terminal region of ompC (AEVYNKDGNKLD-pin (SEQ ID NO: 12)).
After the completed synthesis, we performed initial reactivity tests for the individual peptides, using a standard ELISA test. The ELISA was performed in a mixture of 9 different umbilical blood sera (1H-9H) according to the following scheme: • a. Pin equilibration in TBS-T. • b. Blocking of free sites on the pins using 1% BSA in TBS-T • c. Incubation with umbilical sera at a dilution of 1:500 in a solution of 1% BSA in TBS-T buffer • d. Rinsing with TBS-T buffer • e. Incubation with secondary antibodies, conjugated Anti-Human IgG (Fc)-AP (Promega) • f. Rinsing with TBS-T • g. Reaction of AP with the substrate pNPP (p-Nitrophenyl Phosphate, Sigma) and absorbance measurement at 405 nm • h. Dissociation of proteins/antibodies from peptides synthesized on HPM-pins. […]

[2] = system: antibodies present in human umbilical blood sera; assay: Immunological activity of truncated and substituted peptides derived from RYDERY with umbilical serum; assay type: binding; conditions: FIG. 4
Excerpt: Unexpectedly it was shown that the immunological activity of the RYDERY peptide (SEQ ID NO: 2) is not affected by the removal of amino-acids in positions P+1 and P+2, nor in P−1, […]. The removal of amino-acids in positions P1 or P6, and in the subsequent positions (P2, P3 or P5, P4) caused a complete loss of activity. Likewise, a loss of immunological activity was caused by an exchange of residues at positions P1, P2 and P5. The latter amino-acids must remain unchanged in the final form of the peptide vaccine. Positions P3, P4 and P6 are less restrictive. In this case native amino-acids may be substituted by a series of other residues without any significant loss of immunological activity (FIG. 4). This property of the epitope facilitates the synthesis of a peptide less susceptible to enzymatic hydrolysis, and a higher antigenicity.
Furthermore, it was unexpectedly shown that an alteration of amino-acid D or E for Q yields an increased reactivity with umbilical serum (FIG. 5).

| Substance | binding of antibodies in umbilical sera by loop V peptides [1] | immunological activity of peptides derived from RYDERY (removal or exchange of residues) [2] |
| --- | --- | --- |
| RYDERY | shortest active portion of the epitope |  |
| YDERY |  | no activity |
